Laboratory results from patent US20210177779A1, “COMBINATIONS OF OPIOIDS AND N-ACYLETHANOLAMINES” (SciSparc Ltd., priority 2015, published 2021).

Columns and labels:
Mice, strain ICR [1] = experiment: Tail pinch test (modified Haffner's method); settings: first test 15 min after dosing
Mice, strain ICR [2] = experiment: Open field (OF) test, 15 minute session of spontaneous activity
Method: Open Field (OF) tests were performed as follows—Fifteen minutes after test item/vehicle administration, mice were placed at the center of an open field box (43×43×40 cm) between 9 AM and 5 PM. On each side of the open field box, two frames placed at 2 and 5 cm height with 16 photocell beams per side ensure movement detection. The computer defined grid lines that divided the open field into two compartments: margin and center. Several variables were recorded during a 15 minute session of spontaneous activity including: time spent moving, traveled distance, time spent and number of visits to the central compartment.

SMILES: COc1ccc2c3c1O[C@H]1C(=O)CC[C@@]4(O)[C@@H](C2)N(C)CC[C@]314 [oxycodone]
- Time after administration at which the analgesic effect began (Mice, strain ICR [1]; high dose oxycodone 10 mg/kg IP (PEA 25 mg/kg where combined), FIG. 3A): 15 min
- Time after administration at which the analgesic effect began (Mice, strain ICR [1]; low dose oxycodone 5 mg/kg IP (PEA 25 mg/kg where combined), FIG. 3B): 15 min
- Total distance traveled compared to vehicle control group (1M) (Mice, strain ICR [2]; oxycodone 10 mg/kg IP (PEA 25 mg/kg where combined), dosed 15 min before test, 6M P<0.001, 8M P<0.05, FIG. 1, associated with irritation level): significantly higher
- Average animal velocity compared to vehicle control group (1M) (Mice, strain ICR [2]; oxycodone 10 mg/kg IP (PEA 25 mg/kg where combined), total distance (cm) / total moving time (sec), 6M P<0.001, 8M P<0.05, FIG. 2, associated with uncontrolled movement and confusion): significantly higher
- Total distance traveled, effect of oxycodone (dose-dependent) (Mice, strain ICR [2]; oxycodone 5 and 10 mg/kg IP compared to vehicle 1M, FIG. 1): significantly increased
- Average animal velocity, effect of oxycodone (dose-dependent) (Mice, strain ICR [2]; oxycodone 5 and 10 mg/kg IP compared to vehicle 1M, FIG. 2): significantly increased
